Experimental data reported in US20240110185A1, “INDUCIBLE ANTI-SENSE REPRESSOR SWITCHES AND USES THEREOF” (Trustees of Boston University, priority 2022, published 2024).

Assays:
mCherry [1] = test: Downstream inducible repression with synTF-RD (zinc finger, KRAB, ERT2) and its repressor construct, % mCherry (FIG. 6B); type: cell-based; details: 4-OHT at 0.1, 0.2, 0.5 and 1 μM for d0-d3, 8 days after removal
From the text: FIG. 6A-6B show an alternative embodiment of a synTF and construct system for downstream inducible-repression.

mCherry [2] = test: Inducible-repressor circuit with RZ and synTF-MNAS, % mCherry (FIG. 11); type: cell-based; details: 4-OHT d0-d3 at 0.1, 0.2, 0.5 and 1 μM, duplicates
From the text: FIG. 10 is a schematic of an exemplary synTF comprising VP64, and an exemplary inducible anti-sense repressor construct comprising, in the second transcription unit, a ribosome entry site (RZ), and a nucleic acid sequence that is the antisense to a portion of the nucleic acid encoding the GOI, which are both 5′ to the second promoter and the DBD. In some embodiments, the antisense to the portion of the GOI, herein referred to as “synTF-mediated nucleic acid sequence” or “synTF-MNAS” can be replaced by any RNAi molecule known to persons of ordinary skill in the art.

[3] = tested on: mCherry fluorescent reporter; test: Inducible anti-sense repressor switch: mCherry reporter repression and recovery in 293T cells stably expressing ZF-VP64-ERT2 synTF and the reporter construct; type: cell-based, human
Method: (§1) To evaluate the kinetics of this repressor switch, 293T cells where generated to stably express both the inducible anti-sense repressor and fluorescent reporter. In order to determine whether the repressor switch is able to transiently silence GOIs, the inventors treated reporter cells with. 1 uM 4-OHT and measured mCherry reporter fluorescence at 1 day, 2 days, and 3 days. In order to determine whether the repressor switch transiently represses GOIs, the inventors removed 4-OHT and measured fluorescence expression after 2 days, 4 days, 6 days, and 8 days (FIG. 5A-5B).
The expression of mCherry was measured at days 0, d1, d2, d3, d4, d6, d7, d9 and d11.
as §1, with “To assess transcriptional repression of the GOI, inducible antisense repressor construct comprising (i) a first transcriptional unit comprising a constitutively active promoter operatively linked to a mCherry fluorescent reporter GOI was used, and a (ii) a second transcriptional unit comprising an inverted DNA binding motif (DBM) comprising a zinc finger binding array operatively linked to a minimal promoter (FIG. 4A). To” for “To”, “with 0.1” for “with. 1”
To assess the inducible transcriptional repressor system, the inventors initially used two vectors. One vector comprises a synthetic inducible repressor construct as defined herein, which compromises a gene of interest (GOI) operatively linked to a constitutive promoter, and downstream, a second transcription unit comprising, in brief, a second promoter, and a binding site for the synTF (e.g., DBM or the DNA binding domain). The second vector encoding the inducible synTF (e.g., small molecule induced synTF) comprising a transcriptional activation domain, DNA-binding domain (DBD) and a nuclear localization domain (or cytosolic domain). First, to construct the nucleic acid encoding the small-molecule inducer synTF, one of our artificial zinc finger proteins was attached (see U.S. Pat. No. 10,138,493 B2 and Patent Application No. US 2020/0377564 A1, incorporated herein by reference) to both a VP64 transcriptional domain and ERT2 domain (FIG. 2A). To assess the inducer-dependent, synTF mediated transcriptional repression of the GOI, an engineered construct comprising a constitutively expressed mCherry fluorescent reporter, operatively connected to a constitutive promoter was created, which had, downstream a minimal promoter and an inverted zinc finger binding array (ZF-BD) (also referred to as a DNA binding motif (DBM) (FIG. 4A).
To evaluate the kinetics of this inducible antisense repressor switch, 293T cells were transduced with the vector encoding the synTF and the inducible transcriptional repressor construct to generate a reporter cell line that stably expresses both the inducible synTF and fluorescent reporter. To determine whether the repressor switch was able to transiently silence the GOI mRNA, the cells were treated with three concentrations of 4-OHT and mCherry reporter was measured fluorescence at 1 day, 2 days, and 3 days (FIG. 5A-5B). Next, to determine whether the inducible synTF repressor switch could transiently represses the expression of the GOI, 4-OHT was removed and measured fluorescence expression after 2 days, 4 days, 6 days, and 8 days (FIG. 5B).

mCherry GOI = test: Inducible-repressor circuit with spacer and second promoter, % mCherry and FACS (FIG. 8, FIG. 9); type: cell-based
From the text: FIG. 7 is a schematic of an exemplary inducible-repressor circuit (top panel), and a second exemplary inducible-repressor circuit (bottom panel), where the second inducible-repressor circuit is modified to comprise, in the second transcription unit, a spacer and a second promoter, and the DBD, each if which are in the antisense direction to the first transcription unit comprising the first promoter and GOI.

Compound: CC/C(=C(\c1ccc(O)cc1)c1ccc(OCCN(C)C)cc1)c1ccccc1 [4-OHT, 4-hydroxytamoxifen]
- repression of mCherry compared with the synTF and construct of FIG. 5B (mCherry [1]): milder repression
- repression of mCherry compared with the construct in the top panel of FIG. 7 (mCherry [2]): greater repression
- reporter fluorescence expression after 3 days of 4-OHT ([3]; 0.1 uM 4-OHT, 293T reporter cells, after 3 days): strongly repressed
- mCherry expression in the presence of 4-OHT, of normal levels ([3]; 4-OHT at 0.1 μM, 0.2 μM and 0.5 μM for d0-d3, 293 cells with synTF and construct of FIG. 2A-2B): about 20%
- mCherry levels 8 days after the removal of 4-OHT ([3]; 4-OHT at 0.1 μM, 8 days after removal): back to normal levels
- reporter fluorescence expression after 4-OHT removal ([3]; 8 days post 4-OHT removal): restored
- mCherry expression restored, of baseline levels ([3]; 8 days post 4-OHT removal, 0.1 M 4-OHT treatment (so in the source)): 100%
- repression of mCherry expression ([3]; all three 4-OHT concentrations, after 3 days, 293T reporter cells): approx. 80%
- mCherry expression after the removal of 4-OHT ([3]; d4-d11, after 3 days of 4-OHT): significantly increased
- repression of mCherry compared with the construct in the top panel of FIG. 7 (mCherry GOI; 4-OHT d0-d3 at 0.1 μM, 0.2 M (so in the source), 0.5 μM and 1 μM, duplicates, spacer and second promoter circuit): greater repression
- mCherry expression, FACS flow plot (mCherry GOI; 2 days after addition of 1 uM 4-OHT, decreased from 87.9% before): 69.8%
